Values quoted from earlier work as cited in patent US12565477B2, “Preparation method for chlorinated compound” (JIANGSU KANION PHARMACEUTICAL CO., LTD., priority 2020, dated 2026).
“Also recorded” adds a separate entry of the source. Where two headings read alike, the source gives them in different places.

Legend:
[1] = human; for Percentage of administered dose: 0-144 h, after Lesinurad; for Metabolites found in humans after Lesinurad administration (in words): clinical data
[2] = Hepatocyte, Dog, in vitro
[3] = Hepatocyte, Rat, in vitro
[4] = Liver microsome, Monkey, in vitro
[5] = Liver microsome, Rat, in vitro
[6] = Hepatocyte, Human, in vitro
[7] = target: T1, URAT1 (Homo sapiens, UniProt Q96S37)
T1 construct: URAT1 is an important kidney anion transporter located on the brush border membrane of epithelial cells of renal tubules; host or cells: kidney of treated patients (endogenous)
T1 sequence (Q96S37 1-553): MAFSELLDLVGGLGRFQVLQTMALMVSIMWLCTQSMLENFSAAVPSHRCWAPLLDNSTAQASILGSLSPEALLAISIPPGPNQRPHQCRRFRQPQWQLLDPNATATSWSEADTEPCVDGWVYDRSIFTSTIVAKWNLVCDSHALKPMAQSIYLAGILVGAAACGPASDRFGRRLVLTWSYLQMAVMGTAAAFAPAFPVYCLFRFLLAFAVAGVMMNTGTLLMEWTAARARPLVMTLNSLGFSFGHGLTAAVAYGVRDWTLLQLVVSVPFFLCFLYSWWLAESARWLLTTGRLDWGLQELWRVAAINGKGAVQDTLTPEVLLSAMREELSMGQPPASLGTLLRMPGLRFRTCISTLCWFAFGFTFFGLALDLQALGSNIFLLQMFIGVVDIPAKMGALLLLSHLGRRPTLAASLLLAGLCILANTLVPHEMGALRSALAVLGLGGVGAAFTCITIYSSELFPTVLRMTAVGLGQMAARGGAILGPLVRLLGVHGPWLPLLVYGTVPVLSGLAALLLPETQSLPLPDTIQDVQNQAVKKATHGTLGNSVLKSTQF

[8] = Liver microsome, Human, in vitro
[9] = Hepatocyte, Monkey, in vitro
[10] = Liver microsome, Dog, in vitro

| Structure (SMILES) | Percentage of administered dose ([1]; Feces) [%] | Percentage of administered dose ([1]; Urine) [%] | Share of M3, M4 and Lesinurad detected (Total 100) [2] | Metabolites found in humans after Lesinurad administration (in words) [1] | Share of M3, M4 and Lesinurad detected (Total 100) [3] | Share of M3, M4 and Lesinurad detected (Total 100) [4] [%] | Share of M3, M4 and Lesinurad detected (Total 100) [5] [%] | Share of M3, M4 and Lesinurad detected (Total 100) [6] [%] | Additional effect of combined medication versus xanthine oxidase inhibitor alone ([7]; Lesinurad 200 mg/day with XOI) | Toxic side effects (kidney-related adverse events, especially kidney stone) ([7]; Lesinurad 400 mg/day) | Additional effect of combined medication ([7]; Lesinurad 400 mg/day (high dose) with XOI) | Share of M3, M4 and Lesinurad detected (Total 100) [8] [%] | Share of M3, M4 and Lesinurad detected (Total 100) [9] [%] | Share of M3, M4 and Lesinurad detected (Total 100) [10] [%] |
| --- | --- | --- | --- | --- | --- | --- | --- | --- | --- | --- | --- | --- | --- | --- |
| O=C(O)CSc1nncn1-c1ccc(C2CC2)c2ccccc12 [Compound M2] | 4.8 | 0.3 |  |  |  |  |  |  |  |  |  |  |  |  |
| O=C(O)CSc1nnc(Br)n1-c1ccc(C2(O)CC2)c2ccccc12 [Compound M3] | 0.3 | 12.0 | not detected | most predominant metabolites | not detected | 7.9 |  |  |  |  |  |  |  |  |
| O=C(O)CSc1nnc(Br)n1-c1ccc(C2CC2)c2c1C=CC(O)C2O (stereo not drawn) [Compound M4] | 5.0 | 15.7 | not detected | specifically detected in human metabolites; also recorded: most predominant metabolites | not detected |  |  |  |  |  |  |  |  |  |
| O=C(O)CSc1nncn1-c1ccc(C2(O)CC2)c2ccccc12 [Compound M5] | 3.6 |  |  |  |  |  |  |  |  |  |  |  |  |  |
| O=C(O)CSc1nnc(Br)n1-c1ccc(C2CC2)c2ccccc12 [Lesinurad] | 1.5 | 31.3 | 100% |  | 100% | 92.1 | 100 | 92.1 | not very significant | significantly increased toxic side effects | higher additional effect | 100 | 98.1 | 100 |
